Assay results from publication doi:10.1101/2023.03.27.534333v1 (biorxiv, 2023).

Columns and labels:
[1] = molecular target: T1, full-length METTL16 (Homo sapiens, UniProt Q86W50); assay: m6A antibody-based ELISA; format: biochemical
T1 sequence (Q86W50 1-562): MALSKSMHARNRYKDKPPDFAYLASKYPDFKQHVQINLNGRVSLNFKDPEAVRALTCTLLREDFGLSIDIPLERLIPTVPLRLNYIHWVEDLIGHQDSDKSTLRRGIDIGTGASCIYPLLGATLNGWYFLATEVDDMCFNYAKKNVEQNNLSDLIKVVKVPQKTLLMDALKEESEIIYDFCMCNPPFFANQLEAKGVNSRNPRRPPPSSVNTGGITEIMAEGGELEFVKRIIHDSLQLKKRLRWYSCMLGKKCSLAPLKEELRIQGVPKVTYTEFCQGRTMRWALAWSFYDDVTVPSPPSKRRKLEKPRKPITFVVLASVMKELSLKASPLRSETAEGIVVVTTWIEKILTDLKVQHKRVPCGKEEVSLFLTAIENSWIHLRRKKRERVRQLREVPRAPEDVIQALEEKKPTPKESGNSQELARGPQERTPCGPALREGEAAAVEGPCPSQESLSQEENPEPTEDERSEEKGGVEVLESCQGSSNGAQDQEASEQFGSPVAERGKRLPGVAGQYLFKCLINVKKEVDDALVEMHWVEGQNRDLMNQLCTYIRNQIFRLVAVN

[2] = molecular target: T2, METTL16 MTD (residues 1-291) (Homo sapiens, UniProt Q86W50); assay: microscale thermophoresis, His-tag RED-tris-NTA labelled protein; format: binding
T2 sequence (Q86W50 1-291): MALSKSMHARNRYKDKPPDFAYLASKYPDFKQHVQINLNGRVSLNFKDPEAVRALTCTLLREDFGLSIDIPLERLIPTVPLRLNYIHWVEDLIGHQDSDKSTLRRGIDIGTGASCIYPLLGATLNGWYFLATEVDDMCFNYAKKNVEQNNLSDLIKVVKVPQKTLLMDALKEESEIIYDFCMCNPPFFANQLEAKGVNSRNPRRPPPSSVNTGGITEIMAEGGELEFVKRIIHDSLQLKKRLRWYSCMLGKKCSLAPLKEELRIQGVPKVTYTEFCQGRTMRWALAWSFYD

Row | Structure (SMILES) | IC50 [1] [nM] | Kd [2] [nM]
1 | C/C(=N\N=C(/N)S)c1ccccc1 [compound 1, [(E)-(1-phenylethylidene)amino]thiourea] | 25.8 ± 17.2 | 3310 ± 610
2 | C/C(=N\NC(N)=S)c1ccc(F)cc1 [compound 2, [(E)-[1-(4-fluorophenyl)ethylidene]amino]thiourea] | 60.9 ± 2.75 | 2840 ± 940
